Results: PubChem BioAssay (NCI)
Where “and” joins values, the source holds several entries; their conditions need not be identical. Identical values can stand only once.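 Exposure lasted 48 hours, with cells grown in 96-well plates and compounds tested at five concentrations. GI50 is the concentration that inhibits growth by half. The concentration for full growth arrest is given as TGI.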

Columns and labels:
Experiment in all cases: NCI anticancer screen, dose series, 48 h
[1] = system: 786-0 renal
[2] = system: SK-MEL-2 melanoma
[3] = system: RXF 393 renal
[4] = system: CCRF-CEM leukemia
[5] = system: SNB-19 CNS
[6] = system: A549 NSCLC
[7] = system: OVCAR-3 ovarian
[8] = system: ACHN renal
[9] = system: SK-MEL-28 melanoma
[10] = system: EKVX NSCLC

SMILES	GI50 [1] [µM]	TGI [1] [µM]	GI50 [2] [µM]	TGI [2] [µM]	GI50 [3] [µM]	TGI [3] [µM]	GI50 [4] [µM]	TGI [4] [µM]	GI50 [5] [µM]	TGI [5] [µM]	GI50 [6] [µM]	TGI [6] [µM]	GI50 [7] [µM]	TGI [7]	GI50 [8] [µM]	TGI [8] [µM]	GI50 [9] [µM]	TGI [9] [µM]	GI50 [10] [µM]	TGI [10] [µM]
ClCc1ccc(Cn2cnc3c(Cl)nc(Cl)nc32)cc1	14	29.5	19.8	43.5	20.9	41.5	1.94	4.53	2.5	7.04	18.6	37.1	1.99	4.33 µM	2.35	5.28	2.69	6.99	17.3	31.8
CCC(Oc1ccc(OC)c2ccccc(=O)c12)C(=O)O (centres undefined)		> 100		> 100		> 100		> 100		> 100		> 100		> 100 µM		> 100		> 100		> 100
C=CCCCc1ccc(C(O)CCCCCCCCCCCC)o1 (centres undefined)	15.2	28.5	19.5	42.9	19.6	39.3	23.1	56.8	17.7	32.8	30.4	96.3	19	38.8 µM	16.8	30.4	20.6	50.6	20.1	37.5
O=C1c2nc3n(c2C(=O)c2c1nc1n2CCC1)CCC3	9.25	> 47.8	4.39	13.5		9.59		31.4		27.9	5.11	18.1	3.42	9.74 µM and 7.87 µM		23.9		31.3		31.2
CSc1cccc(NC(=O)OC2CCCCCCCCCCC2)c1		53.9		39.4		70.9		45.5		> 100		> 100		29.6 µM		> 100		> 100		57.6
CCN(CC)CCOc1ccc(C(=O)/C=C\c2ccc(Cl)cc2Cl)cc1	6.44	20.3	15	28.5	5.13	18.1	2.57	9.09	6.81	24.4	6.55	22.6	3.84	14.3 µM	4.73	17.8	2.55	7.75	12.6	25.1
N#Cc1cc(S(=O)(=O)Nc2nc3ccccc3s2)c(SCc2ccccc2)cc1Cl	19.3	39.9	15.3	36.8	20.6	45.4	28.5	94.6	20.1	47.7	15.4	35.3	22.3	59.5 µM	24.7	75	28.8	87.8	17.1	34.5
CC1=C(C(=O)Nc2ccc([N+](=O)[O-])cc2)C(c2ccccc2F)C(C(=O)Nc2ccc([N+](=O)[O-])cc2)=C(C)N1		> 100		24.7		79.2		48.7		> 100		> 100		39.8 µM		39.8		> 100		> 100
CN(C)C(=S)/N=c1\ss/c(=N\S(=O)(=O)c2ccccc2)n1N(C)C		> 100		> 100		85		> 100		> 100		> 100		> 100 µM		> 100		> 100		> 100
CCc1nc(N)nc(N)c1-c1ccc(Cl)c(N=CN(C)C)c1		> 100		> 100		> 100		97.6		> 89.3		> 100		> 100 µM		> 100		> 100		> 100
CCCCCCC(/C=N/O)C(C)(O)CCC (centres undefined)		> 100		> 100		> 100		> 100		> 100		> 100		> 100 µM		> 100		> 100		> 100
